Results: PubChem BioAssay (NCI)
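Protocol summary: plate cells (96-well), add compound at 5 concentrations, incubate 48 h, interpolate endpoints linearly. Here, GI50 denotes the concentration required for 50% inhibition of growth. TGI is the concentration that stops growth completely.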

Experiments:
Test in all cases: NCI anticancer screen, dose series, 48 h; in the data active means GI50 below about 0.43 µM; inactive means the rest
786-0 renal = system: 786-0 renal
A498 renal = system: A498 renal
A549 NSCLC = system: A549 NSCLC
ACHN renal = system: ACHN renal
BT-549 breast = system: BT-549 breast
CAKI-1 renal = system: CAKI-1 renal
CCRF-CEM leukemia = system: CCRF-CEM leukemia
COLO 205 colon = system: COLO 205 colon
DU-145 prostate = system: DU-145 prostate
EKVX NSCLC = system: EKVX NSCLC
HCC-2998 colon = system: HCC-2998 colon
HCT-116 colon = system: HCT-116 colon
HCT-15 colon = system: HCT-15 colon
HL-60(TB) leukemia = system: HL-60(TB) leukemia
HOP-62 NSCLC = system: HOP-62 NSCLC
HOP-92 NSCLC = system: HOP-92 NSCLC
HS 578T breast = system: HS 578T breast
HT29 colon = system: HT29 colon
IGROV1 ovarian = system: IGROV1 ovarian
K-562 leukemia = system: K-562 leukemia
KM12 colon = system: KM12 colon
LOX IMVI melanoma = system: LOX IMVI melanoma
M14 melanoma = system: M14 melanoma
MALME-3M melanoma = system: MALME-3M melanoma
MCF7 breast = system: MCF7 breast
MDA-MB-435 = system: MDA-MB-435
MDA-MB-468 breast = system: MDA-MB-468 breast
MOLT-4 leukemia = system: MOLT-4 leukemia
NCI-H226 lung = system: NCI-H226 lung
NCI-H23 lung = system: NCI-H23 lung
NCI-H460 lung = system: NCI-H460 lung
NCI-H522 lung = system: NCI-H522 lung
NCI/ADR-RES ovarian = system: NCI/ADR-RES ovarian
OVCAR-3 ovarian = system: OVCAR-3 ovarian
OVCAR-4 ovarian = system: OVCAR-4 ovarian
OVCAR-5 ovarian = system: OVCAR-5 ovarian
OVCAR-8 ovarian = system: OVCAR-8 ovarian
PC-3 prostate = system: PC-3 prostate
RPMI-8226 leukemia = system: RPMI-8226 leukemia
RXF 393 renal = system: RXF 393 renal
SF-268 CNS = system: SF-268 CNS
SF-295 CNS = system: SF-295 CNS
SF-539 CNS = system: SF-539 CNS
SK-MEL-28 melanoma = system: SK-MEL-28 melanoma
SK-MEL-5 melanoma = system: SK-MEL-5 melanoma
SK-OV-3 ovarian = system: SK-OV-3 ovarian
SN12C renal = system: SN12C renal
SNB-19 CNS = system: SNB-19 CNS
SR leukemia = system: SR leukemia
SW-620 colon = system: SW-620 colon
T-47D breast = system: T-47D breast
TK-10 renal = system: TK-10 renal
U251 CNS = system: U251 CNS
UACC-257 melanoma = system: UACC-257 melanoma
UACC-62 melanoma = system: UACC-62 melanoma

O=C(Cc1c(-c2ccccc2[N+](=O)[O-])n(-c2ncnc3c2c(-c2ccccc2)c(-c2ccccc2)n3Cc2ccccc2)[nH]c1=O)c1ccc(Cl)c(Cl)c1
55.4 µM: TGI (SK-OV-3 ovarian)
78 µM: TGI (A498 renal)
20.9 µM: TGI (UACC-62 melanoma)
29.7 µM: TGI (RPMI-8226 leukemia)
61 µM: TGI (NCI-H226 lung)
93.9 µM: TGI (CAKI-1 renal)
33.5 µM: TGI (MDA-MB-468 breast)
58.7 µM: TGI (HL-60(TB) leukemia)
26.9 µM: TGI (LOX IMVI melanoma)
61.6 µM: TGI (MOLT-4 leukemia)
24.7 µM: TGI (COLO 205 colon)
> 100 µM: TGI (786-0 renal) | TGI (A549 NSCLC) | TGI (ACHN renal) | TGI (CCRF-CEM leukemia) | TGI (DU-145 prostate) | TGI (EKVX NSCLC) | TGI (HCC-2998 colon) | TGI (HT29 colon) | TGI (IGROV1 ovarian) | TGI (K-562 leukemia) | TGI (KM12 colon) | TGI (NCI-H460 lung) | TGI (NCI/ADR-RES ovarian) | TGI (OVCAR-3 ovarian) | TGI (OVCAR-4 ovarian) | TGI (OVCAR-8 ovarian) | TGI (PC-3 prostate) | TGI (RXF 393 renal) | TGI (SF-268 CNS) | TGI (SF-295 CNS) | TGI (SK-MEL-28 melanoma) | TGI (SN12C renal) | TGI (SNB-19 CNS) | TGI (SW-620 colon) | TGI (T-47D breast) | TGI (TK-10 renal) | TGI (U251 CNS)
45.3 µM: TGI (SR leukemia)
74.6 µM: TGI (HS 578T breast)
83.9 µM: TGI (SF-539 CNS)
72.5 µM: TGI (NCI-H23 lung)
inactive: GI50 (786-0 renal) 26.8 µM | GI50 (A498 renal) 16.6 µM | GI50 (A549 NSCLC) 19.7 µM | GI50 (ACHN renal) 15.2 µM | GI50 (BT-549 breast) 12.1 µM | GI50 (CAKI-1 renal) 15.7 µM | GI50 (CCRF-CEM leukemia) 18.6 µM | GI50 (COLO 205 colon) 11.5 µM | GI50 (DU-145 prostate) 33.9 µM | GI50 (EKVX NSCLC) 3.84 µM | GI50 (HCC-2998 colon) 18.8 µM | GI50 (HCT-116 colon) 5.9 µM | GI50 (HCT-15 colon) 15.8 µM | GI50 (HL-60(TB) leukemia) 5.24 µM | GI50 (HOP-62 NSCLC) 19.4 µM | GI50 (HOP-92 NSCLC) 2.2 µM | GI50 (HS 578T breast) 10.4 µM | GI50 (HT29 colon) 10.1 µM | GI50 (IGROV1 ovarian) 12.1 µM | GI50 (K-562 leukemia) 6.68 µM | GI50 (KM12 colon) 15.1 µM | GI50 (LOX IMVI melanoma) 11.6 µM | GI50 (M14 melanoma) 17.7 µM | GI50 (MALME-3M melanoma) 12.4 µM | GI50 (MCF7 breast) 12.7 µM | GI50 (MDA-MB-435) 19.5 µM | GI50 (MDA-MB-468 breast) 5.29 µM | GI50 (MOLT-4 leukemia) 13.4 µM | GI50 (NCI-H226 lung) 14.4 µM | GI50 (NCI-H23 lung) 13.3 µM | GI50 (NCI-H460 lung) 15.3 µM | GI50 (NCI-H522 lung) 7.37 µM | GI50 (NCI/ADR-RES ovarian) 19.7 µM | GI50 (OVCAR-3 ovarian) 12.8 µM | GI50 (OVCAR-4 ovarian) 13.2 µM | GI50 (OVCAR-5 ovarian) 16.4 µM | GI50 (OVCAR-8 ovarian) 20.1 µM | GI50 (PC-3 prostate) 5.45 µM | GI50 (RPMI-8226 leukemia) 3.38 µM | GI50 (RXF 393 renal) 22.5 µM | GI50 (SF-268 CNS) 29.4 µM | GI50 (SF-295 CNS) 8.34 µM | GI50 (SF-539 CNS) 21 µM | GI50 (SK-MEL-28 melanoma) 17.9 µM | GI50 (SK-MEL-5 melanoma) 8.89 µM | GI50 (SK-OV-3 ovarian) 14.2 µM | GI50 (SN12C renal) 15.1 µM | GI50 (SNB-19 CNS) 15.9 µM | GI50 (SR leukemia) 12.4 µM | GI50 (SW-620 colon) 22.5 µM | GI50 (T-47D breast) 2.76 µM | GI50 (TK-10 renal) 29.3 µM | GI50 (U251 CNS) 13.7 µM | GI50 (UACC-257 melanoma) 9.08 µM | GI50 (UACC-62 melanoma) 5.17 µM
48.9 µM: TGI (MALME-3M melanoma)
58.1 µM: TGI (M14 melanoma)
23.7 µM: TGI (HOP-92 NSCLC)
72.8 µM: TGI (NCI-H522 lung)
62.2 µM: TGI (MDA-MB-435)
85.5 µM: TGI (HOP-62 NSCLC)
21.6 µM: TGI (SK-MEL-5 melanoma)
83.8 µM: TGI (OVCAR-5 ovarian)
66.1 µM: TGI (UACC-257 melanoma)
80.9 µM: TGI (HCT-116 colon)
57.5 µM: TGI (HCT-15 colon)
53.8 µM: TGI (BT-549 breast)
47.7 µM: TGI (MCF7 breast)
